Data from patent publication US20260285875A1, “INHIBITORS OF PARG” (858 Therapeutics, Inc., priority 2023, published 2026).

biological target: T1, cellular PARG (Homo sapiens, UniProt Q86W56); test: Nuclear PAR accumulation assay (immunofluorescence high-content imaging, MMS-treated HeLa cells); type: cell-based; conditions: 1 hour compound then MMS 50 μg/mL for an additional hour
T1 construct: endogenous in cells; host or cells: HeLa
Method: HeLa cells were plated at 15,000 cells/well in a 96-well plate the day before compound treatment and then treated with varying concentrations of test compound and incubated for 1 hour at 37° C.+5% CO2. Following test compound treatment, methylmethane sulfonate (MMS) was added to a final concentration of 50 μg/mL and the cells were incubated for an additional hour. Following treatment, the cells were fixed with ice cold 95% methanol and the plates sealed and placed at -20° C. for 15 minutes. The cells were then washed once with phosphate buffered saline (PBS) and permeabilized with 0.10% Triton-X 100 for 20 minutes at room temperature. […] The cells were then washed three times with PBS before incubation with a fluorescently conjugated goat anti-mouse antibody (Invitrogen A32723) diluted 1:500 in 5% FBS+0.1% Tween-20+PBS for 1 hour at room temperature. The cells were again washed three times with PBS and the nuclei labeled by incubating with 1 μg/mL DAPI (4′,6-diamidino-2-phenylindole). Nuclear PAR accumulation was evaluated using high-content fluorescence microscopy. Four fields for each well were acquired at 20× magnification resulting in at least 1,000 cells analyzed per well. […] Both the average intensity per nucleus and percent PAR positive cells were quantified. […] Concentration-response-curves and IC50 values were generated using four parameter logistic curve fit software.
Representative data for exemplary compounds is presented in Table 32, Table 33 and Table 34.

T1 sequence (Q86W56 whole entry): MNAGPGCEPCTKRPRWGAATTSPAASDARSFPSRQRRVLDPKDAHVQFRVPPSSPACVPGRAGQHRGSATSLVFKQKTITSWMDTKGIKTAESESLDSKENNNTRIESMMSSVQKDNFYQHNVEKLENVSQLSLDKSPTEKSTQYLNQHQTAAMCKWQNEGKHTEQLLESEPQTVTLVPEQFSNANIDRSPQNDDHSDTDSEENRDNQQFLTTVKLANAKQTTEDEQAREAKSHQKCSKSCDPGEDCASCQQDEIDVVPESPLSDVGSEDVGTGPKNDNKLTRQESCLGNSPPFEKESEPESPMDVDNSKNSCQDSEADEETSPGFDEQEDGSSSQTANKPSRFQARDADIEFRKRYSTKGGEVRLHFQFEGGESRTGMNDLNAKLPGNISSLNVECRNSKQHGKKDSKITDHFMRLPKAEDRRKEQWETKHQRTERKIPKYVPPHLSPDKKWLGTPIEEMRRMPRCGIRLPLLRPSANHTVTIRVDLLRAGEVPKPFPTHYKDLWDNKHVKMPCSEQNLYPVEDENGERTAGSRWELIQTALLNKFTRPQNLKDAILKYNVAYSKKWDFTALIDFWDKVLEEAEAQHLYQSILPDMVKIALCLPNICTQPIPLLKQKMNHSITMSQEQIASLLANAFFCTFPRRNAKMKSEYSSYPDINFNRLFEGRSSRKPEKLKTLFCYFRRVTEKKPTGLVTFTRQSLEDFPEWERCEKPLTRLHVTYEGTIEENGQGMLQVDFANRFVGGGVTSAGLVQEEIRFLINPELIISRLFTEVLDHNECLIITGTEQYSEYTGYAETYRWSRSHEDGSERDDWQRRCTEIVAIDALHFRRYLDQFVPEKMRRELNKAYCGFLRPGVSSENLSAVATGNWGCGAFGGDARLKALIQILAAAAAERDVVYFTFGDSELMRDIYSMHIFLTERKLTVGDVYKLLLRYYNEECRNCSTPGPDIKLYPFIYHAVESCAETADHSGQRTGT

SMILES | IC50
CN(C)C(=O)N1CC[C@@H]2N=C3N(Cc4cnn(C)c4)C(=O)c4cc(S(=O)(=O)NC5(C)CC5)ccc4N3[C@@H]2C1 [Example 161, (7aS,11aR)-N,N-dimethyl-6-((1-methyl-1H-pyrazol-4-yl)methyl)-3-(N-(1-methylcyclopropyl)sulfamoyl)-5-oxo-6,7a,8,9,11,1la-hexahydropyrido[4′,3′:4,5]imidazo[1,2-a]quinazoline-10(5H)-carboxamide] | 1 to 10 µM
C[C@@H]1CN=C2N(CC#Cc3ccc(F)nc3)C(=O)c3cc(S(=O)(=O)NC4(C)CC4)ccc3N21 [Example 278, (R)-4-(3-(6-fluoropyridin-3-yl)prop-2-yn-1-yl)-1-methyl-N-(1-methylcyclopropyl)-5-oxo-1,2,4,5-tetrahydroimidazo[1,2-a]quinazoline-7-sulfonamide] | 0.1 to 1 µM
C[C@@H]1CN=C2N(Cc3cccnc3C#N)C(=O)c3cc(S(=O)(=O)NC4(C)CC4)c(F)cc3N21 [Example 223, (R)-4-((2-cyanopyridin-3-yl)methyl)-8-fluoro-1-methyl-N-(1-methylcyclopropyl)-5-oxo-1,2,4,5-tetrahydroimidazo[1,2-a]quinazoline-7-sulfonamide] | 0.1 to 1 µM
COc1ccc(C(=O)/C=C/C(=O)N2CCN(c3cc(S(=O)(=O)NC4(C)CC4)cc4c3N3C(=NC[C@H]3C)N(C)C4=O)CC2)cc1 [Example 57, (R,E)-9-(4-(4-(4-methoxyphenyl)-4-oxobut-2-enoyl)piperazin-1-yl)-1,4-dimethyl-N-(1-methylcyclopropyl)-5-oxo-1,2,4,5-tetrahydroimidazo[1,2-a]quinazoline-7-sulfonamide] | 0.1 to 1 µM
C[C@@H]1CN=C2N(Cc3cnn(C)c3)C(=O)c3cc(S(=O)(=O)NC4(C)CC4)cc(N4CCC(C(=O)N(C)C)CC4)c3N21 [Example 37, (R)-N,N-dimethyl-1-(1-methyl-4-((1-methyl-1H-pyrazol-4-yl)methyl)-7-(N-(1-methylcyclopropyl)sulfamoyl)-5-oxo-1,2,4,5-tetrahydroimidazo[1,2-a]quinazolin-9-yl)piperidine-4-carboxamide] | 0.1 to 1 µM
C[C@@H]1CN=C2N(Cc3cnn(C)c3)C(=O)c3cc(S(=O)(=O)NC4(C)CC4)sc3N21 [Example 41, (R)-8-methyl-5-((1-methyl-1H-pyrazol-4-yl)methyl)-N-(1-methylcyclopropyl)-4-oxo-4,5,7,8-tetrahydroimidazo[1,2-a]thieno[3,2-e]pyrimidine-2-sulfonamide] | 0.1 to 1 µM
Cn1cc(C#C[C@H]2CN=C3N(Cc4cnn(C)c4)C(=O)c4cc(S(=O)(=O)NC5(C)CC5)ccc4N32)cn1 [Example 91, (S′)-1-((1-methyl-1H-pyrazol-4-yl)ethynyl)-4-((1-methyl-1H-pyrazol-4-yl)methyl)-N-(1-methylcyclopropyl)-5-oxo-1,2,4,5-tetrahydroimidazo[1,2-a]quinazoline-7-sulfonamide] | 0.1 to 1 µM
[2H]C([2H])(c1cnn(C)c1)N1C(=O)c2cc(S(=O)(=O)NC3(C)CC3)ccc2N2C1=NCC2CNc1ccccn1 (centres unmarked) [Example 131, 4-((1-methyl-1H-pyrazol-4-yl)methyl-d2)-N-(1-methylcyclopropyl)-5-oxo-1-((pyridin-2-ylamino)methyl)-1,2,4,5-tetrahydroimidazo[1,2-a]quinazoline-7-sulfonamide] | 1 to 10 µM
Cn1cc(CN2C(=O)c3cc(S(=O)(=O)NC4(C)CC4)ccc3N3C2=NC[C@H]3/C=C/c2ccccc2)cn1 [Example 40, (R,E)-4-((1-methyl-1H-pyrazol-4-yl)methyl)-N-(1-methylcyclopropyl)-5-oxo-1-styryl-1,2,4,5-tetrahydroimidazo[1,2-a]quinazoline-7-sulfonamide] | < 0.1 µM
Cn1cc(CN2C(=O)c3cc(S(=O)(=O)NC4(C)CC4)ccc3N3C2=NC[C@H]3COc2ccc(F)cc2)cn1 [Example 29, (S)-1-((4-fluorophenoxy)methyl)-4-((1-methyl-1H-pyrazol-4-yl)methyl)-N-(1-methylcyclopropyl)-5-oxo-1,2,4,5-tetrahydroimidazo[1,2-a]quinazoline-7-sulfonamide] | < 0.1 µM
Cn1cc(CN2C(=O)c3cc(S(=O)(=O)NC4(C)CC4)ccc3N3C2=NC[C@H]3C#Cc2cccnc2)cn1 [Example 117, (R)-4-((1-methyl-1H-pyrazol-4-yl)methyl)-N-(1-methylcyclopropyl)-5-oxo-1-(pyridin-3-ylethynyl)-1,2,4,5-tetrahydroimidazo[1,2-a]quinazoline-7-sulfonamide] | < 0.1 µM

Second part, the compound after the results:

IC50 | SMILES
< 0.1 µM | [2H]C([2H])(c1cnn(C)c1)N1C(=O)c2cc(S(=O)(=O)NC3(C)CC3)cc(Cl)c2N2C1=NC[C@H]2C#CC1CC1 [Example 16, (R)-9-chloro-1-(cyclopropylethynyl)-4-((1-methyl-1H-pyrazol-4-yl)methyl-d2)-N-(1-methylcyclopropyl)-5-oxo-1,2,4,5-tetrahydroimidazo[1,2-a]quinazoline-7-sulfonamide]
< 0.1 µM | C[C@@H]1CN=C2N(Cc3cnn(C)c3)C(=O)c3cc(S(=O)(=O)NC4(C)CC4)cc(C4CC4)c3N21 [Example 1, (R)-9-cyclopropyl-1-methyl-4-((1-methyl-1H-pyrazol-4-yl)methyl)-N-(1-methylcyclopropyl)-5-oxo-1,2,4,5-tetrahydroimidazo[1,2-a]quinazoline-7-sulfonamide]
< 0.1 µM | CN1C(=O)c2cc(S(=O)(=O)NC3(C)CC3)ccc2N2C1=NC[C@H]2C#Cc1ccnn1C [Example 185, (R)-4-methyl-1-((1-methyl-1H-pyrazol-5-yl)ethynyl)-N-(1-methylcyclopropyl)-5-oxo-1,2,4,5-tetrahydroimidazo[1,2-a]quinazoline-7-sulfonamide]
< 0.1 µM | Cn1cc(CN2C(=O)c3cc(S(=O)(=O)NC4(C)CC4)ccc3N3C2=NC[C@H]3C#Cc2cnnn2C)cn1 [Example 166, (R)-1-((1-methyl-1H-1,2,3-triazol-5-yl)ethynyl)-4-((1-methyl-1H-pyrazol-4-yl)methyl)-N-(1-methylcyclopropyl)-5-oxo-1,2,4,5-tetrahydroimidazo[1,2-a]quinazoline-7-sulfonamide]
< 0.1 µM | [2H]C([2H])(c1cnn(C)c1)N1C(=O)c2cc(S(=O)(=O)NC3(C)CC3)ccc2N2C1=NC[C@H]2C#CC1=CCOCC1 [Example 282, (R)-1-((3,6-dihydro-2H-pyran-4-yl)ethynyl)-4-((1-methyl-1H-pyrazol-4-yl)methyl-d2)-N-(1-methylcyclopropyl)-5-oxo-1,2,4,5-tetrahydroimidazo[1,2-a]quinazoline-7-sulfonamide]
< 0.1 µM | C[C@@H]1CN=C2N(Cc3cn(C)nc3C(F)(F)F)C(=O)c3cc(S(=O)(=O)NC4(C)CC4)cc(Br)c3N21 [Example 23, (R)-9-bromo-1-methyl-4-((1-methyl-3-(trifluoromethyl)-1H-pyrazol-4-yl)methyl)-N-(1-methylcyclopropyl)-5-oxo-1,2,4,5-tetrahydroimidazo[1,2-a]quinazoline-7-sulfonamide]
< 0.1 µM | CN1C(=O)c2cc(S(=O)(=O)NC3(C)CC3)ccc2N2C1=NCC2C#Cc1ccnc(F)c1 (centres unmarked) [Example 224, 1-((2-fluoropyridin-4-yl)ethynyl)-4-methyl-N-(1-methylcyclopropyl)-5-oxo-1,2,4,5-tetrahydroimidazo[1,2-a]quinazoline-7-sulfonamide]
< 0.1 µM | Cn1cc(CN2C(=O)c3cc(S(=O)(=O)NC4(C)CC4)ccc3N3C2=NC[C@H]3C#Cc2ccccn2)cn1 [Example 67, (R)-4-((1-methyl-1H-pyrazol-4-yl)methyl)-N-(1-methylcyclopropyl)-5-oxo-1-(pyridin-2-ylethynyl)-1,2,4,5-tetrahydroimidazo[1,2-a]quinazoline-7-sulfonamide]
< 0.1 µM | [2H]C([2H])(c1cnn(C)c1)N1C(=O)c2cc(S(=O)(=O)NC3(C)CC3)ccc2N2C1=NC[C@H]2COc1cnn(C)c1 [Example 108, (S)-4-((1-methyl-1H-pyrazol-4-yl)methyl-d2)-1-(((1-methyl-1H-pyrazol-4-yl)oxy)methyl)-N-(1-methylcyclopropyl)-5-oxo-1,2,4,5-tetrahydroimidazo[1,2-a]quinazoline-7-sulfonamide]
< 0.1 µM | CSCC#C[C@@H]1CN=C2N(Cc3cnn(C)c3)C(=O)c3cc(S(=O)(=O)NC4(C)CC4)ccc3N21 [Example 164, (R)-4-((1-methyl-1H-pyrazol-4-yl)methyl)-N-(1-methylcyclopropyl)-1-(3-(methylthio)prop-1-yn-1-yl)-5-oxo-1,2,4,5-tetrahydroimidazo[1,2-a]quinazoline-7-sulfonamide]
< 0.1 µM | Cn1cc(CN2C(=O)c3cc(S(=O)(=O)NC4(C)CC4)ccc3N3C2=NC[C@H]3C#Cc2cnccn2)cn1 [Example 77, (R)-4-((1-methyl-1H-pyrazol-4-yl)methyl)-N-(1-methylcyclopropyl)-5-oxo-1-(pyrazin-2-ylethynyl)-1,2,4,5-tetrahydroimidazo[1,2-a]quinazoline-7-sulfonamide]
< 0.1 µM | CN1CC=C(c2cc(S(=O)(=O)NC3(C)CC3)cc3c2N2CC(C)(C)N=C2N(Cc2cnn(C)c2)C3=O)CC1 [Example 4, 2,2-dimethyl-9-(1-methyl-1,2,3,6-tetrahydropyridin-4-yl)-4-((1-methyl-1H-pyrazol-4-yl)methyl)-N-(1-methylcyclopropyl)-5-oxo-1,2,4,5-tetrahydroimidazo[1,2-a]quinazoline-7-sulfonamide]
